Biological target: T1, Recombinant human BACE-1 (Homo sapiens, UniProt P56817)
T1 construct: purchased R&D Systems
Assay: Assay of β-secretase-inhibiting activity;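 also: substrate is a peptide carrying biotin and europium cryptate, after the enzyme reaction, Streptavidin-XL665 is added and incubated 1 h at 30 °C before fluorescence reading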
Type: biochemical
Conditions: Recombinant human BACE-1 7.4 nM, substrate peptide 18 nM, pH 5.0, 30° C., 3 hours; Table 139; read-out: IC50

T1 sequence (P56817 46-501): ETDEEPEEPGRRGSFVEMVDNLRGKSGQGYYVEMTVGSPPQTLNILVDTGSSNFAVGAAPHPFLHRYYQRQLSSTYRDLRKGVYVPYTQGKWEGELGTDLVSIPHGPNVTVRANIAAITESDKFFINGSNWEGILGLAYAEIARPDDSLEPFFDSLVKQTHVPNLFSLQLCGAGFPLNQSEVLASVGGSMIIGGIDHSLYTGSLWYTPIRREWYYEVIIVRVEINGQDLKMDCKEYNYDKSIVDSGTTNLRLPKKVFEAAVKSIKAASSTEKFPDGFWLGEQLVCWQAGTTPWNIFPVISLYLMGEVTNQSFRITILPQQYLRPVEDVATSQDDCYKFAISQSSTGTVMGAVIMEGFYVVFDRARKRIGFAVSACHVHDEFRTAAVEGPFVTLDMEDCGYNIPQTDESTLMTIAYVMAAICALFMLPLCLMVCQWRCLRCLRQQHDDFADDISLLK

Row | IC50 | SMILES
1 | 110 nM | C[C@@]1(c2cc(NC(=O)c3cnc(-c4ccco4)cn3)ccc2F)CCSC(N)=N1 [Compound 136]
2 | 120 nM | Cc1ccc(NC(=O)c2cnc(Cl)cn2)cc1C1(C)CCSC(N)=N1 (stereo not shown) [Compound 141]
3 | 9250 nM | C[C@@]1(c2cc(NC(=O)COc3ccccc3O)ccc2F)CCSC(N)=N1 [Compound 149]
4 | 2480 nM | C[C@@]1(c2cc(NC(=O)CCc3cccc(N)c3)ccc2F)CCSC(N)=N1 [Compound 150]
5 | 6770 nM | Cc1cc(SCC(=O)Nc2ccc(F)c([C@]3(C)CCSC(N)=N3)c2)nc(N)n1 [Compound 151]
6 | 6790 nM | C[C@@]1(c2cc(NC(=O)CSc3nccc(O)n3)ccc2F)CCSC(N)=N1 [Compound 163]
7 | 80 nM | COCCOCCOc1cnc(C(=O)Nc2ccc(F)c([C@]3(C)CCSC(N)=N3)c2)cn1 [Compound 164]

Row | SMILES | IC50
8 | C[C@@]1(c2cc(NC(=O)CCc3ccc(O)c(O)c3)ccc2F)CCSC(N)=N1 [Compound 155] | 5960 nM

Same assay, conditions: Recombinant human BACE-1 7.4 nM, substrate peptide 18 nM, pH 5.0, 30° C., 3 hours; Table 140; read-out: IC50

Row | IC50 | SMILES
9 | 20 nM | Cc1cnc(C(=O)Nc2cc([C@]3(C)CCSC(N)=N3)c3oc(C)cc3c2)cn1 [Compound 468]
10 | 50 nM | Cc1nnsc1C(=O)Nc1ccc(F)c([C@]2(C)CCSC(N)=N2)c1 [Compound 481]
11 | 260 nM | Cc1cc(C(=O)Nc2ccc(F)c([C@]3(C)CCSC(N)=N3)c2)nn1C [Compound 488]
12 | 90 nM | C[C@@]1(c2cc(NC(=O)c3ncc(O)cc3F)ccc2F)CCSC(N)=N1 [Compound 491]
13 | 30 nM | Cn1cc(-c2cnc(C(=O)Nc3ccc(F)c([C@]4(C)CCSC(N)=N4)c3)cn2)cn1 [Compound 494]
14 | 240 nM | C[C@@]1(c2cncc(NC(=O)c3ccc(Br)s3)c2)CCSC(N)=N1 [Compound 514]
15 | 130 nM | C[C@@]1(c2cc(NC(=O)c3cnc(Cl)cn3)ccc2Br)CCSC(N)=N1 [Compound 517]
16 | 180 nM | C[C@@]1(c2cc(NC(=O)c3cc4nccnc4s3)ccc2F)CCSC(N)=N1 [Compound 521]

Further lines, the molecule ahead of its results:

Row | SMILES | IC50
17 | Cc1nc(C(=O)Nc2cncc([C@]3(C)CCSC(N)=N3)c2)c(C)o1 [Compound 461] | 30 nM
18 | Cc1cc2cc(NC(=O)c3ccc(OCCO)cn3)cc([C@]3(C)CCSC(N)=N3)c2o1 [Compound 464] | 430 nM
19 | COc1cc(C(=O)Nc2cncc([C@]3(C)CCSC(N)=N3)c2)n(C)n1 [Compound 473] | 170 nM
20 | Cn1nc(Cl)cc1C(=O)Nc1cncc([C@]2(C)CCSC(N)=N2)c1 [Compound 478] | 80 nM
21 | C[C@@]1(c2cc(NC(=O)c3nc4cnccc4[nH]3)ccc2F)CCSC(N)=N1 [Compound 484] | 290 nM
22 | Cc1nc(Br)sc1C(=O)Nc1cncc([C@]2(C)CCSC(N)=N2)c1 [Compound 497] | 90 nM
23 | C[C@@]1(c2cc(NC(=O)c3cn4ccccc4n3)ccc2F)CCSC(N)=N1 [Compound 502] | 40 nM
24 | Cc1nc(C(=O)Nc2ccc(F)c([C@]3(C)CCSC(N)=N3)c2)cs1 [Compound 505] | 30 nM
25 | Cc1ncc(C(=O)Nc2ccc(F)c([C@]3(C)CCSC(N)=N3)c2)s1 [Compound 508] | 40 nM

Same assay, conditions: Recombinant human BACE-1 7.4 nM, substrate peptide 18 nM, pH 5.0, 30° C., 3 hours; time-resolved fluorescence ratio 665/620; read-out: IC50 values (50% inhibitory concentration against the enzymatic activity)

Row | IC50 | SMILES
26 | ≤ 1000 nM | C#CCOc1cnc(C(=O)Nc2ccc(F)c([C@]3(C)CCSC(N)=N3)c2)cn1 [Compound 133]
27 | ≤ 1000 nM | CCOc1cnc(C(=O)Nc2ccc(F)c([C@]3(C)CCSC(N)=N3)c2)cn1 [Compound 134]
28 | ≤ 1000 nM | C[C@@]1(c2cc(NC(=O)c3ccc(OC(F)F)cn3)ccc2F)CCSC(N)=N1 [Compound 135]
29 | ≤ 1000 nM | CC#CCOc1cnc(C(=O)Nc2ccc(C)c(C3(C)CCSC(N)=N3)c2)cn1 (stereo not shown) [Compound 142]
30 | ≤ 1000 nM | CC#CCOc1cnc(C(=O)Nc2cc(F)c(F)c(C3(C)CCSC(N)=N3)c2)cn1 (stereo not shown) [Compound 145]
31 | ≤ 1000 nM | C[C@@]1(c2cc(NC(=O)c3cnc(-c4ccoc4)cn3)ccc2F)CCSC(N)=N1 [Compound 158]
32 | ≤ 1000 nM | C[C@@]1(c2cc(NC(=O)c3cnc(/C=C/CO)cn3)ccc2F)CCSC(N)=N1 [Compound 162]
33 | ≤ 1000 nM | C[C@@]1(c2cc(NC(=O)c3ncc(OCC(F)(F)F)nc3N)ccc2F)CCSC(N)=N1 [Compound 165]
34 | ≤ 1000 nM | Cc1nc(C(=O)Nc2ccc(F)c([C@]3(C)CCSC(N)=N3)c2)co1 [Compound 462]
35 | ≤ 1000 nM | Cc1cc(C(=O)Nc2ccc(F)c([C@]3(C)CCSC(N)=N3)c2)n(C)n1 [Compound 463]
36 | ≤ 1000 nM | Cc1cc(C(=O)Nc2cncc([C@]3(C)CCSC(N)=N3)c2)n(C(C)(C)C)n1 [Compound 466]
37 | ≤ 1000 nM | C[C@@]1(c2cc(NC(=O)c3coc(Cl)n3)ccc2F)CCSC(N)=N1 [Compound 467]
38 | ≤ 1000 nM | CC#CCOc1cnc(C(=O)Nc2cc([C@]3(C)CCSC(N)=N3)c3oc(C)cc3c2)cn1 [Compound 469]
39 | ≤ 1000 nM | C[C@@]1(c2cc(NC(=O)c3coc(CCl)n3)ccc2F)CCSC(N)=N1 [Compound 470]
40 | ≤ 1000 nM | Cc1nc(C(=O)Nc2ccc(F)c([C@]3(C)CCSC(N)=N3)c2)c(C(F)(F)F)o1 [Compound 471]
41 | ≤ 1000 nM | Cc1cc(C(=O)Nc2cncc([C@]3(C)CCSC(N)=N3)c2)on1 [Compound 474]

Row | IC50 | SMILES
42 | ≤ 1000 nM | Cc1cc(C(=O)Nc2cncc([C@]3(C)CCSC(N)=N3)c2)n(C)n1 [Compound 476]
43 | ≤ 1000 nM | CCn1nc(C)cc1C(=O)Nc1cncc([C@]2(C)CCSC(N)=N2)c1 [Compound 479]
44 | ≤ 1000 nM | Cc1ccc(C(=O)Nc2cncc([C@]3(C)CCSC(N)=N3)c2)s1 [Compound 485]
45 | ≤ 1000 nM | Cc1csc(C(=O)Nc2cncc([C@]3(C)CCSC(N)=N3)c2)c1 [Compound 486]
46 | ≤ 1000 nM | Cc1ccsc1C(=O)Nc1cncc([C@]2(C)CCSC(N)=N2)c1 [Compound 487]
47 | ≤ 1000 nM | Cc1cnc(C(=O)Nc2ccc(Br)c(C3(C)CCSC(N)=N3)c2)cn1 (stereo not shown) [Compound 492]
48 | ≤ 1000 nM | CSc1ccc(C(=O)Nc2cncc([C@]3(C)CCSC(N)=N3)c2)s1 [Compound 493]
49 | ≤ 1000 nM | CCc1cc(C(=O)Nc2ccc(F)c([C@]3(C)CCSC(N)=N3)c2)on1 [Compound 495]
50 | ≤ 1000 nM | C[C@@]1(c2cc(NC(=O)c3c[nH]nc3C3CC3)ccc2F)CCSC(N)=N1 [Compound 499]
51 | ≤ 1000 nM | Cc1noc(C)c1C(=O)Nc1ccc(F)c([C@]2(C)CCSC(N)=N2)c1 [Compound 500]
52 | ≤ 1000 nM | C[C@@]1(c2cc(NC(=O)c3cnc(-c4ccc[nH]4)cn3)ccc2F)CCSC(N)=N1 [Compound 509]
53 | ≤ 1000 nM | C[C@@]1(c2cncc(NC(=O)c3sccc3Br)c2)CCSC(N)=N1 [Compound 515]
54 | ≤ 1000 nM | COCc1ccc(C(=O)Nc2ccc(F)c([C@]3(C)CCSC(N)=N3)c2)o1 [Compound 522]
55 | ≤ 1000 nM | COc1cscc1C(=O)Nc1ccc(F)c([C@]2(C)CCSC(N)=N2)c1 [Compound 524]
56 | ≤ 1000 nM | Cc1cc(C(=O)Nc2ccc(F)c([C@]3(C)CCSC(N)=N3)c2)oc1C [Compound 529]

Further lines, the molecule ahead of its results:

Row | SMILES | IC50
57 | Cc1cnc(C(=O)Nc2cc(F)c(F)c(C3(C)CCSC(N)=N3)c2)cn1 (stereo not shown) [Compound 143] | ≤ 1000 nM
58 | CC1(c2cc(NC(=O)c3cnc(Cl)cn3)cc(F)c2F)CCSC(N)=N1 (stereo not shown) [Compound 144] | ≤ 1000 nM
59 | C[C@@]1(c2cncc(NC(=O)c3ccc(Cl)cn3)c2)CCSC(N)=N1 [Compound 152] | ≤ 1000 nM
60 | C[C@@]1(c2cc(NC(=O)c3nccnc3C(N)=O)ccc2F)CCSC(N)=N1 [Compound 157] | ≤ 1000 nM
61 | COCCOc1cnc(C(=O)Nc2cc([C@]3(C)CCSC(N)=N3)c3oc(C)cc3c2)cn1 [Compound 465] | ≤ 1000 nM
62 | C[C@@]1(c2cc(NC(=O)C3=NNC(=O)CC3)ccc2F)CCSC(N)=N1 [Compound 472] | ≤ 1000 nM
63 | CN1N=C(C(=O)Nc2ccc(F)c([C@]3(C)CCSC(N)=N3)c2)CCC1=O [Compound 475] | ≤ 1000 nM
64 | CCN1N=C(C(=O)Nc2ccc(F)c([C@]3(C)CCSC(N)=N3)c2)CCC1=O [Compound 477] | ≤ 1000 nM
65 | Cc1cc(C(=O)Nc2cncc([C@]3(C)CCSC(N)=N3)c2)c(C)o1 [Compound 482] | ≤ 1000 nM
66 | COc1cnc(C(=O)Nc2ccc(F)c([C@]3(C)CCSC(N)=N3)c2)c(OC)c1 [Compound 489] | ≤ 1000 nM
67 | C[C@@]1(c2cc(NC(=O)c3ccc(Cl)nn3)ccc2F)CCSC(N)=N1 [Compound 490] | ≤ 1000 nM
68 | Cc1nc(C(=O)Nc2cncc([C@]3(C)CCSC(N)=N3)c2)c(C(F)(F)F)o1 [Compound 501] | ≤ 1000 nM
69 | Cc1cccnc1C(=O)Nc1ccc(F)c([C@]2(C)CCSC(N)=N2)c1 [Compound 503] | ≤ 1000 nM
70 | C[C@@]1(c2cncc(NC(=O)c3ccc(Cl)s3)c2)CCSC(N)=N1 [Compound 504] | ≤ 1000 nM
71 | Cc1ncsc1C(=O)Nc1ccc(F)c([C@]2(C)CCSC(N)=N2)c1 [Compound 506] | ≤ 1000 nM
72 | Cc1cc(C(=O)Nc2ccc(F)c([C@]3(C)CCSC(N)=N3)c2)ns1 [Compound 507] | ≤ 1000 nM
73 | Cc1ncc(C(=O)Nc2ccc(F)c([C@]3(C)CCSC(N)=N3)c2)s1 [Compound 508] | ≤ 1000 nM
74 | C[C@@]1(c2cc(NC(=O)c3ncccc3F)ccc2F)CCSC(N)=N1 [Compound 510] | ≤ 1000 nM
75 | C[C@@]1(c2cc(NC(=O)c3ncccc3F)ccc2F)CCSC(N)=N1 [Compound 511] | ≤ 1000 nM
76 | COc1cnc(C(=O)Nc2ccc(F)c([C@]3(C)CCSC(N)=N3)c2)c(F)c1 [Compound 512] | ≤ 1000 nM
77 | C[C@@]1(c2cncc(NC(=O)c3cc(Br)cs3)c2)CCSC(N)=N1 [Compound 516] | ≤ 1000 nM
78 | Cc1ccoc1C(=O)Nc1ccc(F)c([C@]2(C)CCSC(N)=N2)c1 [Compound 518] | ≤ 1000 nM
79 | C[C@@]1(c2cc(NC(=O)c3cnc(-c4nccs4)cn3)ccc2F)CCSC(N)=N1 [Compound 519] | ≤ 1000 nM
80 | CC(C)c1nnsc1C(=O)Nc1ccc(F)c(C2(C)CCSC(N)=N2)c1 (stereo not shown) [Compound 520] | ≤ 1000 nM
81 | Cc1noc(C)c1-c1cnc(C(=O)Nc2ccc(F)c([C@]3(C)CCSC(N)=N3)c2)cn1 [Compound 523] | ≤ 1000 nM
82 | CCOc1cnc(C(=O)Nc2ccc(F)c([C@]3(C)CCSC(N)=N3)c2)c(OCC)c1 [Compound 528] | ≤ 1000 nM

Source: US20100075957A1, “AMINODIHYDROTHIAZINE DERIVATIVES SUBSTITUTED WITH A CYCLIC GROUP” (SHIONOGI & CO., LTD., priority 2007, published 2010)
